From patent US9561228B2 (Celgene Avilomics Research, Inc., priority 2013, dated 2017)

Assays:
Type in all cases: cell-based
[1] = test system: A375 cells (malignant melanoma); assay: Inhibition of cancer cell proliferation, A375 (CellTiterGlo, 72 hours); conditions: Homo sapiens, A-375
How it was run: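 GI50 derived from % growth inhibition relative to untreated wells, after luminescence (CellTiterGlo, 10 min) was converted to cell counts using a standard curve. Compound given as 3-fold dilutions from a 2× 5,000 nM stock in serum-free DMEM; 3000 A375 cells/well, 72 h culture at 37 °C.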

[2] = test system: HCT116 cells (colorectal carcinoma); assay: Inhibition of cancer cell proliferation, HCT116 (CellTiterGlo, 72 hours); conditions: Homo sapiens, HCT-116
How it was run: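 3000 cells per well exposed to 3-fold serial compound dilutions from 5,000 nM (two-fold solution, stock level) for 72 hours at 37° C. CellTiterGlo luminescence converted to cell number via a standard curve; percent inhibition vs untreated wells, GI50 by curve fit.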

[3] = test system: HT-29 cells (colorectal adenocarcinoma); assay: Inhibition of cancer cell proliferation, HT-29 (CellTiterGlo, 72 hours); conditions: Homo sapiens
How it was run: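 Proliferation over 72 h at 37° C was read by CellTiterGlo luminescence, translated to cell counts with a cell-density standard curve (390–50,000 cells). Compound added as 3-fold dilutions from a 5,000 nM two-fold stock to 3000 seeded HT-29 cells; GI50 from percent inhibition relative to untreated wells.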

| Structure (SMILES) | GI50 [1] [nM] | GI50 [2] [nM] | GI50 [3] [nM] |
| --- | --- | --- | --- |
| C=CC(=O)Nc1cc(C)ccc1Nc1nc(Nc2cc(C(C)=O)ccc2C)ncc1C(F)(F)F [Compound I-84, N-(2-((2-((5-Acetyl-2-methylphenyl)amino)-5-(trifluoromethyl)pyrimidin-4-yl)amino)-5-methylphenyl)acrylamide] | 101 to 500 | 501 to 999 | 101 to 500 |
| C=CC(=O)Nc1ccccc1Nc1nc(Nc2cc(OC)ncc2C)ncc1C(F)(F)F [Compound I-85, N-(2-((2-((2-Methoxy-5-methylpyridin-4-yl)amino)-5-(trifluoromethyl)pyrimidin-4-yl)amino)phenyl)acrylamide] | < 100 | 101 to 500 | < 100 |
| C=CC(=O)Nc1ccccc1Nc1nc(Nc2cc(OC)nc(N3CCN(C(C)=O)CC3)c2)ncc1C(F)(F)F [Compound I-92] | < 100 | < 100 | < 100 |
| C=CC(=O)Nc1cc(C)ccc1Nc1nc(Nc2cc(OC)nc(N3CCN(C(C)=O)CC3)c2)ncc1C(F)(F)F [Compound I-93, N-(2-((2-((2-(4-Acetylpiperazin-1-yl)-6-methoxypyridin-4-yl)amino)-5-(trifluoromethyl)pyrimidin-4-yl)amino)-5-methylphenyl)acrylamide] | < 100 | < 100 | < 100 |
| C=CC(=O)Nc1cc(C)ccc1Nc1nc(Nc2cc(OC)nc(OC)c2)ncc1C(F)(F)F [Compound I-96] | 101 to 500 | < 100 | < 100 |
| C=CC(=O)Nc1cc(C)ccc1Nc1nc(Nc2cc(NCCOC)nc(OC)c2)ncc1C(F)(F)F [Compound I-294, N-(2-((2-((2-methoxy-6-((2-methoxyethyl)amino)pyridin-4-yl)amino)-5-(trifluoromethyl)pyrimidin-4-yl)amino)-5-methylphenyl)acrylamide] | < 100 | < 100 | < 100 |
| C=CC(=O)Nc1cc(C)ccc1Nc1nc(Nc2cc(N[C@H]3CC[C@](C)(O)CC3)nc(OC)c2)ncc1C(F)(F)F [Compound I-327, N-(2-((2-((2-((trans-4-hydroxy-4-methylcyclohexyl)amino)-6-methoxypyridin-4-yl)amino)-5-(trifluoromethyl)pyrimidin-4-yl)amino)-5-methylphenyl)acrylamide] | < 100 | < 100 | – |
| C=CC(=O)Nc1cc(C)ccc1Nc1nc(Nc2nc(OC)ncc2Cl)ncc1C(F)(F)F [Compound I-344, N-(2-((2-((5-chloro-2-methoxypyrimidin-4-yl)amino)-5-(trifluoromethyl)pyrimidin-4-yl)amino)-5-methylphenyl)acrylamide] | 101 to 500 | 501 to 999 | 101 to 500 |
| C=CC(=O)Nc1cc(C)ccc1Nc1nc(Nc2nc(OC)ncc2C#N)ncc1C(F)(F)F [Compound I-346, N-(2-((2-((5-cyano-2-methoxypyrimidin-4-yl)amino)-5-(trifluoromethyl)pyrimidin-4-yl)amino)-5-methylphenyl)acrylamide] | 101 to 500 | 501 to 999 | 101 to 500 |
| C=CC(=O)Nc1cc(C)ccc1Nc1nc(Nc2nc(OC)ncc2C)ncc1C(F)(F)F [Compound I-347, N-(2-((2-((2-methoxy-5-methylpyrimidin-4-yl)amino)-5-(trifluoromethyl)pyrimidin-4-yl)amino)-5-methylphenyl)acrylamide] | < 100 | 501 to 999 | 101 to 500 |
| C=CC(=O)Nc1cc(C)ccc1Nc1nc(Nc2nc(OC)ncc2OC)ncc1C(F)(F)F [Compound I-349, N-(2-((2-((2,5-dimethoxypyrimidin-4-yl)amino)-5-(trifluoromethyl)pyrimidin-4-yl)amino)-5-methylphenyl)acrylamide] | 101 to 500 | > 1000 | 101 to 500 |
| C=CC(=O)Nc1cc(C)ccc1Nc1nc(Nc2ncc(C(F)(F)F)c(OC)n2)ncc1C(F)(F)F [Compound I-354, N-(2-((2-((4-methoxy-5-(trifluoromethyl)pyrimidin-2-yl)amino)-5-(trifluoromethyl)pyrimidin-4-yl)amino)-5-methylphenyl)acrylamide] | 501 to 999 | 501 to 999 | 101 to 500 |
| C=CC(=O)Nc1cc(C)ccc1Nc1nc(Nc2nc(OC)ncc2C(F)(F)F)ncc1C(F)(F)F [Compound I-355, N-(2-((2-((2-methoxy-5-(trifluoromethyl)pyrimidin-4-yl)amino)-5-(trifluoromethyl)pyrimidin-4-yl)amino)-5-methylphenyl)acrylamide] | 101 to 500 | > 1000 | 501 to 999 |
| C=CC(=O)Nc1cc(C)ccc1Nc1nc(Nc2ncc(F)c(OC)n2)ncc1C(F)(F)F [Compound I-356, N-(2-((2-((5-fluoro-4-methoxypyrimidin-2-yl)amino)-5-(trifluoromethyl)pyrimidin-4-yl)amino)-5-methylphenyl)acrylamide] | 501 to 999 | > 1000 | 501 to 999 |
| C=CC(=O)Nc1cc(C)ccc1Nc1nc(Nc2nc(OC)ncc2F)ncc1C(F)(F)F [Compound I-357, N-(2-((2-((5-fluoro-2-methoxypyrimidin-4-yl)amino)-5-(trifluoromethyl)pyrimidin-4-yl)amino)-5-methylphenyl)acrylamide] | 101 to 500 | 501 to 999 | < 100 |
| C=CC(=O)Nc1cc(C)ccc1Nc1nc(Nc2cc(OCCOC)ncc2C)ncc1C(F)(F)F [Compound I-359, N-(2-((2-((2-(2-methoxyethoxy)-5-methylpyridin-4-yl)amino)-5-(trifluoromethyl)pyrimidin-4-yl)amino)-5-methylphenyl)acrylamide] | 101 to 500 | > 1000 | 501 to 999 |
| C=CC(=O)Nc1cc(C)ccc1Nc1nc(Nc2nc(OC)ccc2Cl)ncc1C(F)(F)F [Compound I-360, N-(2-((2-((3-chloro-6-methoxypyridin-2-yl)amino)-5-(trifluoromethyl)pyrimidin-4-yl)amino)-5-methylphenyl)acrylamide] | 101 to 500 | > 1000 | > 1000 |
| C=CC(=O)Nc1cc(C)ccc1Nc1nc(Nc2cc(OC)cnc2Cl)ncc1C(F)(F)F [Compound I-361, N-(2-((2-((2-chloro-5-methoxypyridin-3-yl)amino)-5-(trifluoromethyl)pyrimidin-4-yl)amino)-5-methylphenyl)acrylamide] | 101 to 500 | 501 to 999 | 101 to 500 |
| C=CC(=O)Nc1cc(C)ccc1Nc1nc(Nc2nc(O)ncc2C)ncc1C(F)(F)F [Compound I-364, N-(2-((2-((2-hydroxy-5-methylpyrimidin-4-yl)amino)-5-(trifluoromethyl)pyrimidin-4-yl)amino)-5-methylphenyl)acrylamide] | < 100 | 101 to 500 | 101 to 500 |
| C=CC(=O)Nc1cc(C)c(F)cc1Nc1nc(Nc2nc(OC)ncc2Cl)ncc1C(F)(F)F [Compound I-374, N-(2-((2-((5-chloro-2-methoxypyrimidin-4-yl)amino)-5-(trifluoromethyl)pyrimidin-4-yl)amino)-4-fluoro-5-methylphenyl)acrylamide] | < 100 | 101 to 500 | 101 to 500 |
| C=CC(=O)Nc1cc(C)ccc1Nc1nc(Nc2cc(OCCO)ncc2C)ncc1C(F)(F)F [Compound I-376, N-(2-((2-((2-(2-hydroxyethoxy)-5-methylpyridin-4-yl)amino)-5-(trifluoromethyl)pyrimidin-4-yl)amino)-5-methylphenyl)acrylamide] | 101 to 500 | 501 to 999 | 101 to 500 |
| C=CC(=O)Nc1cc(C)c(F)cc1Nc1nc(Nc2nc(OC)ncc2C)ncc1C(F)(F)F [Compound I-377, N-(4-fluoro-2-((2-((2-methoxy-5-methylpyrimidin-4-yl)amino)-5-(trifluoromethyl)pyrimidin-4-yl)amino)-5-methylphenyl)acrylamide] | 101 to 500 | > 1000 | < 100 |
| C=CC(=O)Nc1cc(C)ccc1Nc1nc(Nc2ccnc3ccccc23)ncc1C(F)(F)F [Compound I-379, N-(5-methyl-2-((2-(quinolin-4-ylamino)-5-(trifluoromethyl)pyrimidin-4-yl)amino)phenyl)acrylamide] | 101 to 500 | 101 to 500 | 101 to 500 |
| C=CC(=O)Nc1cc(CN2CCN(C(C)=O)CC2)ccc1Nc1nc(Nc2cc(OC)ncc2C)ncc1C(F)(F)F [Compound I-381, N-(5-((4-acetylpiperazin-1-yl)methyl)-2-((2-((2-methoxy-5-methylpyridin-4-yl)amino)-5-(trifluoromethyl)pyrimidin-4-yl)amino)phenyl)acrylamide] | 101 to 500 | 101 to 500 | 101 to 500 |
| C=CC(=O)Nc1cc(CN2CCN(S(C)(=O)=O)CC2)ccc1Nc1nc(Nc2cc(OC)ncc2C)ncc1C(F)(F)F [Compound I-384, N-(2-((2-((2-methoxy-5-methylpyridin-4-yl)amino)-5-(trifluoromethyl)pyrimidin-4-yl)amino)-5-((4-(methylsulfonyl)piperazin-1-yl)methyl)phenyl)acrylamide] | < 100 | 101 to 500 | < 100 |
| C=CC(=O)Nc1cc(CN2CCN(C(=O)c3cccnc3)CC2)ccc1Nc1nc(Nc2cc(OC)ncc2C)ncc1C(F)(F)F [Compound I-389, N-(2-((2-((2-methoxy-5-methylpyridin-4-yl)amino)-5-(trifluoromethyl)pyrimidin-4-yl)amino)-5-((4-nicotinoylpiperazin-1-yl)methyl)phenyl)acrylamide] | < 100 | 101 to 500 | < 100 |
